These results are taken from US12721343B2, “Methods and uses of a mixture comprising alpha-cypermethrin and dinotefuran for controlling invertebrate pests in t” (BASF AGRO B.V., priority 2020, dated 2026).

Common to all, as to type: in vivo
Experiment [1] relates to Fall armyworm (Spodoptera frugiperda, LAPHFR). The experiment is described as follows: Golf course trial against fall armyworm, soapy water flush counts. The note with it: for % Control / % activity: alpha-cypermethrin 95, dinotefuran 600, combination 95 + 380 g ai/ha; for Fall Armyworm worm Counts (average per treatment per sample, 1-sq-ft): 28 days after treatment, alpha-cypermethrin 95, dinotefuran 600, combination 95 + 380 g ai/hectare. As to the method: (§1) Synergism can be described as an interaction where the combined effect of two or more compounds is greater than the sum of the individual effects of each of the compounds. The presence of a synergistic effect in terms of percent control, between two mixing partners (X and Y) can be calculated using the Colby equation (Colby, S. R., 1967, Calculating Synergistic and Antagonistic Responses in Herbicide Combinations, Weeds, 15, 20-22):
This trial was conducted at a golf course in an area planted with Hybrid bermudagrass, cv. ‘419’, with natural infestation of fall armyworm. The trial was laid out in 6 replications with each plot measuring 20×25 ft. Applications were made in a spray volume of 203 liters per hectare. The fall armyworms were about second or third instar when found. Fall armyworm density assessment was conducted as soapy water flush. About one gallon of soapy water was poured into an area marked with a 1-sq-ft PVC pipe square. Fall armyworms surfaced within 5 minutes and were counted in each 1-sq-ft area. Fall armyworm densities in a total of three squares (or 3 subsamples) were determined in each plot at each sampling data. Assessments were conducted at 28 days after treatment.

Experiment [2] has as its system Masked chafer grub, Cyclocephala spp. (CYCCSP). The experiment is described as follows: Perennial ryegrass plot trial against masked chafer grubs (seeded adults), live grub counts. The note with it: for % Control / % activity: alpha-cypermethrin 95, dinotefuran 600, combination 95 + 380 g ai/ha; for Masked Chafer grub counts (average live grubs per treatment per sample): 4 days after treatment, alpha-cypermethrin 95, dinotefuran 600, combination 95 + 380 g ai/hectare. The protocol:
as §1
The study was conducted on perennial ryegrass. Individual plots were 6 ft×6 ft and arranged in a randomized complete block design with 4 replications. Adult Cyclocephala spp. (masked chafer) were collected when active and immediately placed inside covered PVC rings on each plot. Approximately 50 adult masked chafers were added to each plot throughout the active adult stage. The rings were removed 24-36 hours after insecticide application. After the treatment, the plots were irrigated immediately with approximately 0.125″ of water. Treatments were applied in water equivalent to 813 liters/hectare. The number of live grub larvae was assessed 4 days after treatment by removing a two-foot strip of sod cut to a […] each plot (12 ft2 per plot).

Experiment [3] relates to Sod webworm (Herpetogramma phaeopteralis, PACYPH). The experiment is described as follows: Field trial against sod webworm, larvae counts. The note with it: for % Control / % activity: alpha-cypermethrin 47.5, dinotefuran 600, combination 47.5 + 190 g ai/ha; for Sod Webworm Counts (average number of larvae per treatment per sample): 7 days after treatment, alpha-cypermethrin 47.5, dinotefuran 600, combination 47.5 + 190 g ai/hectare.
Description: as §1
Treatments were applied with a natural infestation of sod webworm. The experiment was conducted in four replications, utilizing 3×3 m2 plots. One application was made in 813 liters per hectare spray volume. po The treatments consisted of an untreated check, formulations of either alpha-cypermethrin at a use rate of 47.5 grams ai/hectare, dinotefuran at 600 gram ai/hectare or a combination of alpha-cypermethrin and dinotefuran at 47.5+190 grams ai/hectare.
Direct visual counts were made of sod webworm larvae in each plot 7 days after treatment.

Experiment [4] relates to Masked chafer (Cyclocephala spp., CYCCSP). The experiment is described as follows: Turf trial against masked chafer grubs (Kentucky Bluegrass, natural infestation), larvae counts. The conditions noted are these: for % Control / % activity: alpha-cypermethrin 95, dinotefuran 600, combination 95 + 380 g ai/ha; for Masked Chafer Grub Counts (average per treatment per sample, per 1 sq. ft.): 62 days after treatment, alpha-cypermethrin 95, dinotefuran 600, combination 95 + 380 g ai/hectare. As to the method:
as §1
The trial was conducted with Kentucky Bluegrass as main turf variety, with a natural infestation of masked chafer grubs. Treatments were arranged in a randomized complete block design and replicated four times in plots measuring 24 ft^2.
Treatments were applied in 813 liter/hectare spray volume.
White grub control was determined by larvae counts 62 days after treatment. A sod cutter cut a strip down the center of each replicate and a shovel cut the stirp into a small square in the middle of each plot. The number of larvae in each 1 sq. ft. were counted.

In experiment [5] the test system is Fall armyworm, Spodoptera frugiperda (LAPHFR). The experiment is described as follows: Fall armyworm feeding damage on creeping bentgrass fairway. The note with it: for % Reduction / % activity: alpha-cypermethrin 95, dinotefuran 600, combination 95 + 380 g ai/ha; for Fall Armyworm damage (%) (average feeding damage): five days after treatment, two applications, alpha-cypermethrin 95, dinotefuran 600, combination 95 + 380 g ai/hectare.
Description: as §1
A trial was established on a mature ‘L-93’ creeping bentgrass fairway. An initial application was made with a repeat application 8 days later. Fall armyworms were artificially infested at the test site eight hours after the second application. Ten living caterpillars were added to each plot and were protected within a PVC ring. Plots were rated five days after treatement for percent damage by caterpillar feeding within the ring area.

Experiment [6] deals with Southern Chinch Bug (Blissus insularis, BLISIN). The experiment is described as follows: Field trial against Southern chinch bug, nymph counts by vacuum sampling. The conditions noted are these: for % Control / % activity: alpha-cypermethrin 95, dinotefuran 600, combination 95 + 380 g ai/ha; for Nymph Counts (average number of Chinch bug nymphs per treatment per sample): 28 days after treatment, alpha-cypermethrin 95, dinotefuran 600, combination 95 + 380 g ai/hectare.
Description: as §1
Treatments were applied in a field with a natural infestation of Southern Chinch Bugs. The experiment was conducted with four replications, utilizing 3×3 m2 plots. The application was made in 813 liters per hectare spray volume.
The treatments consisted of an untreated check, and formulations containing either alpha-cypermethrin at a use rate of 95 grams ai/hectare, dinotefuran at 600 gram ai/hectare or a combination of alpha-cypermethrin and dinotefuran at 95+380 grams ai/hectare. Direct visual counts were made of larval chinch bugs in all stages of development after being mechanically vacuumed for 20 seconds from the surface of the turf. Chinch Bug abundance was measured using a commercially available lawn vacuum/blower combination machine by covering the vacuum (intake) orifice with mesh cloth and placing the intake on randomly within the turf plot and holding suction for […]. Samples were collected from each plot in an identical manner. After the sample was collected and the vacuum turned off, the captured contents of the mesh cloth were tapped into a 5-gallon plastic bucket for ease of counting of nymphs (at any instar).
The following average numbers of chinch bug nymphs were collected per sample per treatment 28 days after the insecticide applications were made.

Experiment [7] concerns Japanese beetle grub (Popillia japonica, POPIJA). The experiment is described as follows: Turf plot trial against Japanese beetle grubs, grub counts in soil cores. The note with it: 85 DAT; for % Control / % activity: alpha-cypermethrin 95, dinotefuran 600, combination 95 + 380 g ai/ha; for Japanese Beetle Grub Counts (average per treatment per sample): alpha-cypermethrin 95, dinotefuran 600, combination 95 + 380 g ai/hectare. The protocol: as §1
The trial was conducted in plots consisting of a mix of Poa pratensis (~10%)—Lolium perenne (~60%)—Festuca arundinacea (~10%), and Agrostis stolonifera (<10%). Treatments were arranged in a randomized complete block design and replicated four times. Each replicate consisted of 3 arenas (~150 in^2). Each replicate was contained within a turfgrass plot measuring 9 ft^2. Treatments were applied in 813 liter/hectare spray volume.
To obtain consistent densities of white grub larvae, Japanese beetles (Popillia japonica) were captured in pheromone traps and seeded into the arenas to mate and oviposit.
20 males and 20 females were placed into 8 inch diameter PVC arenas (height=6 inch). The arena was driven 1 inch into the ground and fit with a mesh covering (324 openings/in2) to prevent beetles from escaping. After 3 days, the mesh coverings were removed, beetles removed, and 40 new beetles (20 males and 20 females) were placed into the arenas, followed by a third introduction. Nineteen days after the initial infestation date, the arenas were dismantled, and the turf was maintained as normal. Turf paint was used to mark the edges of turf where the arenas were located and reapplied as necessary.
White grub suppression was assessed 85 DAT by comparing the densities of grubs in treated and untreated plots. Three soil cores (total area=150 in2) were removed from each plot where the arenas were located using a large golf course cup cutter. Core soils were examined visually, by breaking the soil over a tray and looking for grubs (while in the field). The number of white grubs was pooled for the arenas in each replicate. Japanese beetle larvae present at time of evaluation (98.4%) were a mix of 2nd (42%) and 3rd (58%) instars.

Experiment [8] relates to Black cut worm (Agrostis ypsilon, AGROYP). The experiment is described as follows: Field bioassay with caged black cutworm larvae on putting green. The note with it: for % Control / % activity: alpha-cypermethrin 47.5, dinotefuran 600, combination 47.5 + 190 g ai/ha; for Black Cutworm Counts (average surviving larvae per treatment per sample, 10 larvae/plot): 19 days after treatment, alpha-cypermethrin 47.5, dinotefuran 600, combination 47.5 + 190 g ai/hectare. The protocol:
as §1
The study was conducted on a creeping bentgrass/annual bluegrass putting green in a golf course. The study was a field bioassay where insect larvae were placed in cages at different intervals after applying insecticide treatments.
Applications were made to 4-foot by 6-foot plots replicated four times in 813 liter spray volume per hectare. Black cutworm (Agrostis ypsilon) larvae were caged in the turf at after the treatments were applied. Cages consisted of six-inch diameter metal cans. Two cages were inserted into each plot and five second-instar larvae were placed into each cage (total of 10 larvae/plot) before dusk. Window screen and a plastic louver were placed on top of the cages and held down with nails to secure the larvae. Larvae were caged for four days (96 hours) then a disclosing solution of 1 fl. oz. Joy Ultra dish soap in 1 gallon of water was used to flush surviving larvae 19 days after treatment.

The mark [9] stands for this setting: 28 DAT, calculated from solo rates 95 and 600 g ai/ha.

Consider `CC1(C)C(C=C(Cl)Cl)C1C(=O)OC(C#N)c1cccc(Oc2ccccc2)c1` (racemic) [Alpha-cypermethrin, racemate comprising (R)-α-cyano-3-phenoxybenzyl (1S, 3S)-3-(2,2-dichlorovinyl)-2,2-dimethylcyclopropanecarboxy late; (S)-α-cyano-3-phenoxybenzyl (1R, 3R) (2,2-dichlorovinyl)-2,2-dimethylcyclopropanecarboxylate], for which the “% Control / % activity” value is given as 57% in experiment [1] (28 DAT); 18% in experiment [2] (4 DAT); 57% in experiment [3] (7 DAT); 91% in experiment [4] (62 DAT); 81% in experiment [6] (28 DAT); 0% in experiment [7]. Besides, in experiment [8] (19 DAT), the “% Control / % activity” value is on record as 80%. The “expected % activity (Colby)” value in experiment [1] (setting [9]) was 58%; in experiment [2] (4 DAT, calculated from solo rates 95 and 600 g ai/ha) it was 29%; in experiment [3] (7 DAT, calculated from solo rates 47.5 and 600 g ai/ha) it was 87%; in experiment [4] (62 DAT, calculated from solo rates 95 and 600 g ai/ha), 97%; in experiment [5] (5 DAT, calculated from solo rates 95 and 600 g ai/ha), 98%; in experiment [6] (setting [9]), 96%. Further, the “expected % activity (Colby)” value in experiment [7] (calculated from solo rates 95 and 600 g ai/ha) was 0%; in experiment [8] (19 DAT, calculated from solo rates 47.5 and 600 g ai/ha), 83%. Also, the “Fall Armyworm worm Counts (average per treatment per sample, 1-sq-ft)” value in experiment [1] is recorded as 1.39. Besides, in experiment [2], the “Masked Chafer grub counts (average live grubs per treatment per sample)” value is given as 18.5. In experiment [3], the “Sod Webworm Counts (average number of larvae per treatment per sample)” value is 2.5. In experiment [4], the “Masked Chafer Grub Counts (average per treatment per sample, per 1 sq. ft.)” value is on record as 0.25. Besides, in experiment [5] (5 DAT), the “% Reduction / % activity” value amounted to 94%. Further, the “Fall Armyworm damage (%) (average feeding damage)” value in experiment [5] amounted to 1.25%. The “Nymph Counts (average number of Chinch bug nymphs per treatment per sample)” value in experiment [6] worked out at 6.0. The “Japanese Beetle Grub Counts (average per treatment per sample)” value in experiment [7] is on record as 2.25. In experiment [8], the “Black Cutworm Counts (average surviving larvae per treatment per sample, 10 larvae/plot)” value amounted to 1.75.

`CNC(=N[N+](=O)[O-])NCC1CCOC1` (racemic) [Dinotefuran, (RS)-1-methyl-2-nitro-3-(tetrahydro-3-furylmethyl) guanidine]: the “% Control / % activity” value in experiment [1] (28 DAT) amounted to 2%; in experiment [2] (4 DAT), 13%; in experiment [3] (7 DAT), 60%; in experiment [4] (62 DAT) it was 64%; in experiment [6] (28 DAT), 81%; in experiment [7], 0%. The “% Control / % activity” value in experiment [8] (19 DAT) is listed as 17%. Moreover, the “Fall Armyworm worm Counts (average per treatment per sample, 1-sq-ft)” value in experiment [1] came out at 3.17. The “Masked Chafer grub counts (average live grubs per treatment per sample)” value in experiment [2] is 19.5. The “Sod Webworm Counts (average number of larvae per treatment per sample)” value in experiment [3] is given as 2.3. For the same compound, the “Masked Chafer Grub Counts (average per treatment per sample, per 1 sq. ft.)” value in experiment [4] stood at 1.00. In addition, the “% Reduction / % activity” value in experiment [5] (5 DAT) was determined as 75%. Moreover, in experiment [5], the “Fall Armyworm damage (%) (average feeding damage)” value came to 5.00%. In experiment [6], the “Nymph Counts (average number of Chinch bug nymphs per treatment per sample)” value amounted to 5.8. The “Japanese Beetle Grub Counts (average per treatment per sample)” value in experiment [7] amounted to 2.00. In addition, the “Black Cutworm Counts (average surviving larvae per treatment per sample, 10 larvae/plot)” value in experiment [8] amounted to 7.25.
